From publication PMC9688307 (2022)

What was measured:
[1] = system: BP33-10GT (DNA, aptamer) CCGCCGTTGTTGTGGTGGGCCTAGGGCCGGCGG; experiment: ITC; settings: 100 mM NaCl, 25 mM KCl, 10 mM MgCl2; 25 mM Tris-HCl pH 8.0, 2% DMSO; 500 μM BPA into 30 μM aptamer
[2] = system: BP33-23AT (DNA, aptamer) CCGCCGTTGGTGTGGTGGGCCTTGGGCCGGCGG; experiment: ITC; settings: 100 mM NaCl, 25 mM KCl, 10 mM MgCl2; 25 mM Tris-HCl pH 8.0, 2% DMSO; 500 μM BPA into 30 μM aptamer
[3] = system: BP29-3'-MB (DNA, aptamer) GCCGTTGGTGTGGTGGGCCTAGGGCCGGC; experiment: square wave voltammetry, aptamer-modified gold electrode; settings: 100 mM NaCl, 25 mM KCl, 10 mM MgCl2, 25 mM Tris-HCl pH 8.0
[4] = system: BP33-15GT (DNA, aptamer) CCGCCGTTGGTGTGTTGGGCCTAGGGCCGGCGG; experiment: ITC; settings: 100 mM NaCl, 25 mM KCl, 10 mM MgCl2; 25 mM Tris-HCl pH 8.0, 2% DMSO; 500 μM BPA into 30 μM aptamer
[5] = system: BP45 (DNA, aptamer) CCGCCGTTGGTGTGGTGGGCCTAGGGCCGGCGGCGCACAGCTGTT; experiment: ITC; settings: 100 mM NaCl, 25 mM KCl, 10 mM MgCl2; 25 mM Tris-HCl pH 8.0, 2% DMSO; 500 μM BPA into 30 μM aptamer
[6] = system: BP55 (DNA, aptamer) CCGCCGTTGGTGTGGTGGGCCTAGGGCCGGCGGCGCACAGCTGTTATAGACGTCT; experiment: ITC; settings: 100 mM NaCl, 25 mM KCl, 10 mM MgCl2; 25 mM Tris-HCl pH 8.0, 2% DMSO; 500 μM BPA into 30 μM aptamer
[7] = system: BP25 (DNA, aptamer) CGTTGGTGTGGTGGGCCTAGGGCCG; experiment: ITC; settings: 100 mM NaCl, 25 mM KCl, 10 mM MgCl2; 25 mM Tris-HCl pH 8.0, 2% DMSO; 500 μM BPA into 30 μM aptamer
[8] = system: BP33-25GT (DNA, aptamer) CCGCCGTTGGTGTGGTGGGCCTAGTGCCGGCGG; experiment: ITC; settings: 100 mM NaCl, 25 mM KCl, 10 mM MgCl2; 25 mM Tris-HCl pH 8.0, 2% DMSO; 500 μM BPA into 30 μM aptamer
[9] = system: BP33-9GT (DNA, aptamer) CCGCCGTTTGTGTGGTGGGCCTAGGGCCGGCGG; experiment: ITC; settings: 100 mM NaCl, 25 mM KCl, 10 mM MgCl2; 25 mM Tris-HCl pH 8.0, 2% DMSO; 500 μM BPA into 30 μM aptamer
[10] = system: BP33-stem-30GT (DNA, aptamer) CCGCCGTTGGTGTGGTGGGCCTAGGGCCGTCGG; experiment: ITC; settings: 100 mM NaCl, 25 mM KCl, 10 mM MgCl2; 25 mM Tris-HCl pH 8.0, 2% DMSO; 500 μM BPA into 30 μM aptamer
[11] = system: BP34 (DNA, aptamer) CGCCGTTGGTGTGGTGGGCCTAGGGCCGGCGGCG; experiment: ITC; settings: 100 mM NaCl, 25 mM KCl, 10 mM MgCl2; 25 mM Tris-HCl pH 8.0, 2% DMSO; 500 μM BPA into 30 μM aptamer
[12] = system: BP33-20CA (DNA, aptamer) CCGCCGTTGGTGTGGTGGGACTAGGGCCGGCGG; experiment: ITC; settings: 100 mM NaCl, 25 mM KCl, 10 mM MgCl2; 25 mM Tris-HCl pH 8.0, 2% DMSO; 500 μM BPA into 30 μM aptamer
[13] = system: BP33-14GT (DNA, aptamer) CCGCCGTTGGTGTTGTGGGCCTAGGGCCGGCGG; experiment: ITC; settings: 100 mM NaCl, 25 mM KCl, 10 mM MgCl2; 25 mM Tris-HCl pH 8.0, 2% DMSO; 500 μM BPA into 30 μM aptamer
[14] = system: BP33 (DNA, aptamer) CCGCCGTTGGTGTGGTGGGCCTAGGGCCGGCGG; experiment: ITC; settings: 100 mM NaCl, 25 mM KCl, 10 mM MgCl2; 25 mM Tris-HCl pH 8.0, 2% DMSO; 500 μM BPA into 30 μM aptamer
[15] = system: BP29 (DNA, aptamer) GCCGTTGGTGTGGTGGGCCTAGGGCCGGC; experiment: ITC; settings: 100 mM NaCl, 25 mM KCl, 10 mM MgCl2; 25 mM Tris-HCl pH 8.0, 2% DMSO; 500 μM BPA into 30 μM aptamer
[16] = system: BP33-8TA (DNA, aptamer) CCGCCGTAGGTGTGGTGGGCCTAGGGCCGGCGG; experiment: ITC; settings: 100 mM NaCl, 25 mM KCl, 10 mM MgCl2; 25 mM Tris-HCl pH 8.0, 2% DMSO; 500 μM BPA into 30 μM aptamer
[17] = system: BP63 (DNA, aptamer) CCGGTGGGTGGTCAGGTGGGATAGCGTTCCGCGTATGGCCCAGCGCATCACGGGTTCGCACCA; experiment: ITC; settings: 100 mM NaCl, 25 mM KCl, 10 mM MgCl2; 25 mM Tris-HCl pH 8.0, 2% DMSO; 200 μM BPA into 20 μM aptamer
[18] = system: BP33-17GT (DNA, aptamer) CCGCCGTTGGTGTGGTTGGCCTAGGGCCGGCGG; experiment: ITC; settings: 100 mM NaCl, 25 mM KCl, 10 mM MgCl2; 25 mM Tris-HCl pH 8.0, 2% DMSO; 500 μM BPA into 30 μM aptamer
[19] = system: BP33-27CA (DNA, aptamer) CCGCCGTTGGTGTGGTGGGCCTAGGGACGGCGG; experiment: ITC; settings: 100 mM NaCl, 25 mM KCl, 10 mM MgCl2; 25 mM Tris-HCl pH 8.0, 2% DMSO; 500 μM BPA into 30 μM aptamer
[20] = system: BP35 (DNA, aptamer) CCGCCGTTGGTGTGGTGGGCCTAGGGCCGGCGGCG; experiment: ITC; settings: 100 mM NaCl, 25 mM KCl, 10 mM MgCl2; 25 mM Tris-HCl pH 8.0, 2% DMSO; 500 μM BPA into 30 μM aptamer
[21] = system: BP33-11TA (DNA, aptamer) CCGCCGTTGGAGTGGTGGGCCTAGGGCCGGCGG; experiment: ITC; settings: 100 mM NaCl, 25 mM KCl, 10 mM MgCl2; 25 mM Tris-HCl pH 8.0, 2% DMSO; 500 μM BPA into 30 μM aptamer
[22] = system: BP33-12GT (DNA, aptamer) CCGCCGTTGGTTTGGTGGGCCTAGGGCCGGCGG; experiment: ITC; settings: 100 mM NaCl, 25 mM KCl, 10 mM MgCl2; 25 mM Tris-HCl pH 8.0, 2% DMSO; 500 μM BPA into 30 μM aptamer
[23] = system: BP33-stem-6GT (DNA, aptamer) CCGCCTTTGGTGTGGTGGGCCTAGGGCCGGCGG; experiment: ITC; settings: 100 mM NaCl, 25 mM KCl, 10 mM MgCl2; 25 mM Tris-HCl pH 8.0, 2% DMSO; 500 μM BPA into 30 μM aptamer
[24] = system: BP33-7TA (DNA, aptamer) CCGCCGATGGTGTGGTGGGCCTAGGGCCGGCGG; experiment: ITC; settings: 100 mM NaCl, 25 mM KCl, 10 mM MgCl2; 25 mM Tris-HCl pH 8.0, 2% DMSO; 500 μM BPA into 30 μM aptamer
[25] = system: BP40 (DNA, aptamer) CCGCCGTTGGTGTGGTGGGCCTAGGGCCGGCGGCGCACAG; experiment: ITC; settings: 100 mM NaCl, 25 mM KCl, 10 mM MgCl2; 25 mM Tris-HCl pH 8.0, 2% DMSO; 500 μM BPA into 30 μM aptamer
[26] = system: BP33-26GT (DNA, aptamer) CCGCCGTTGGTGTGGTGGGCCTAGGTCCGGCGG; experiment: ITC; settings: 100 mM NaCl, 25 mM KCl, 10 mM MgCl2; 25 mM Tris-HCl pH 8.0, 2% DMSO; 500 μM BPA into 30 μM aptamer
[27] = system: BP31 (DNA, aptamer) CGCCGTTGGTGTGGTGGGCCTAGGGCCGGCG; experiment: ITC; settings: 100 mM NaCl, 25 mM KCl, 10 mM MgCl2; 25 mM Tris-HCl pH 8.0, 2% DMSO; 500 μM BPA into 30 μM aptamer
[28] = system: BP33-18GT (DNA, aptamer) CCGCCGTTGGTGTGGTGTGCCTAGGGCCGGCGG; experiment: ITC; settings: 100 mM NaCl, 25 mM KCl, 10 mM MgCl2; 25 mM Tris-HCl pH 8.0, 2% DMSO; 500 μM BPA into 30 μM aptamer
[29] = system: BP33-21CA (DNA, aptamer) CCGCCGTTGGTGTGGTGGGCATAGGGCCGGCGG; experiment: ITC; settings: 100 mM NaCl, 25 mM KCl, 10 mM MgCl2; 25 mM Tris-HCl pH 8.0, 2% DMSO; 500 μM BPA into 30 μM aptamer
[30] = system: BP33-stem-29GT (DNA, aptamer) CCGCCGTTGGTGTGGTGGGCCTAGGGCCTGCGG; experiment: ITC; settings: 100 mM NaCl, 25 mM KCl, 10 mM MgCl2; 25 mM Tris-HCl pH 8.0, 2% DMSO; 500 μM BPA into 30 μM aptamer
[31] = system: BP33-22TA (DNA, aptamer) CCGCCGTTGGTGTGGTGGGCCAAGGGCCGGCGG; experiment: ITC; settings: 100 mM NaCl, 25 mM KCl, 10 mM MgCl2; 25 mM Tris-HCl pH 8.0, 2% DMSO; 500 μM BPA into 30 μM aptamer
[32] = system: BP33-16TA (DNA, aptamer) CCGCCGTTGGTGTGGAGGGCCTAGGGCCGGCGG; experiment: ITC; settings: 100 mM NaCl, 25 mM KCl, 10 mM MgCl2; 25 mM Tris-HCl pH 8.0, 2% DMSO; 500 μM BPA into 30 μM aptamer
[33] = system: BP27 (DNA, aptamer) CCGTTGGTGTGGTGGGCCTAGGGCCGG; experiment: ITC; settings: 100 mM NaCl, 25 mM KCl, 10 mM MgCl2; 25 mM Tris-HCl pH 8.0, 2% DMSO; 500 μM BPA into 30 μM aptamer
[34] = system: BP33-13TA (DNA, aptamer) CCGCCGTTGGTGAGGTGGGCCTAGGGCCGGCGG; experiment: ITC; settings: 100 mM NaCl, 25 mM KCl, 10 mM MgCl2; 25 mM Tris-HCl pH 8.0, 2% DMSO; 500 μM BPA into 30 μM aptamer
[35] = system: BP50 (DNA, aptamer) CCGCCGTTGGTGTGGTGGGCCTAGGGCCGGCGGCGCACAGCTGTTATAGA; experiment: ITC; settings: 100 mM NaCl, 25 mM KCl, 10 mM MgCl2; 25 mM Tris-HCl pH 8.0, 2% DMSO; 500 μM BPA into 30 μM aptamer
[36] = 100 μM tested, no remarkable current change

In the case of CC(C)(c1ccc(O)cc1)c1ccc(O)cc1, the binding [1] is reported as “no”, the binding [2] is reported as “no” and the binding ([3]; current increased 88% at 500 μM BPA) is reported as “yes”. For the same compound, the binding [4] was “no”, the Kd [5] was 12.5 ± 0.8 µM and the Kd [6] was 11.6 ± 1.0 µM. For the same compound, the binding [7] was “no”, the binding [8] was “no” and the binding [9] was “no”. The Kd [10] was 51.2 ± 10.4 µM, the Kd [11] was 307 ± 249 µM and the Kd [12] was 14.6 ± 0.9 µM. For the same compound, the binding [13] was “no”, the Kd [14] was 10.5 ± 1.5 µM and the Kd [15] was 12.4 ± 3.4 µM. For the same compound, the binding [16] was “no”, the binding [17] was “no” and the binding [18] was “no”. For the same compound, the Kd [19] was 16.0 ± 2.2 µM, the Kd [20] was 20.2 ± 1.0 µM and the Kd [21] was 24.4 ± 1.8 µM. The binding [22] was “no”, the binding [23] was “no” and the Kd [24] was 68.4 ± 4.9 µM. For the same compound, the Kd [25] was 15.4 ± 0.9 µM, the binding [26] was “no” and the Kd [27] was 13.4 ± 1.5 µM. For the same compound, the binding [28] was “no”, the Kd [29] was 10.5 ± 0.7 µM and the binding [30] was “no”. For the same compound, the Kd [31] was 15.2 ± 0.9 µM, the Kd [32] was 24.4 ± 1.6 µM and the Kd [33] was 56 ± 9.0 µM. For the same compound, the Kd [34] was 22.6 ± 6.9 µM and the Kd [35] was 9.5 ± 0.5 µM.

For CN(C)[C@@H]1C(=O)C(C(N)=O)=C(O)[C@@]2(O)C(=O)C3=C(O)c4c(O)cccc4[C@@](C)(O)[C@H]3C[C@@H]12, the binding [3, 36] was “no”.

For CN(C)[C@@H]1C(=O)C(C(N)=O)=C(O)[C@@]2(O)C(=O)C3=C(O)c4c(O)cccc4[C@@](C)(O)[C@H]3[C@H](O)[C@@H]12, the binding [3, 36] was “no”.

With O=S(=O)(c1ccc(O)cc1)c1ccc(O)cc1 the binding [3, 36] was “no”.

For Oc1ccc(-c2ccc(O)cc2)cc1, the binding [3, 36] was “no”.
